{"source": "PubChem BioAssay AID1963977", "about": "(Molecular Pharmacology Branch, DTP, NCI, 2024);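 also: spheroids exposed to agents for seven days before luminescence read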;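 as to viability, T/C: luminescent signal used as a stand-in for spheroid viability; percent viability relative to DMSO vehicle control wells taken as 100%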", "system": "624824-186-R-J3-PDC multicell spheroids, viability", "test": "Anticancer human tumor 624824-186-R-J3-PDC patient-derived colon adenocarcinoma cell line growth inhibition [PI3K]", "settings": "for IC50: curve of first compound; for viability, T/C: stronger effect = lower value", "description": "Combinatorial screen of targeted agents with the PI3K inhibitors inavolisib, alpelisib, duvelisib, and copanlisib in multi-cell type tumor spheroids\nA high-throughput screen of multi-cell type tumor spheroids was designed to identify active combinations of targeted small molecules and PI3K pathway inhibitors. Complex spheroids include a stromal component modeled by human endothelial cells (HUVEC) and fibroblasts modeled by human mesenchymal stem cells (MSCs). The concentration ranges selected for each drug and investigational agent were based upon clinically achievable concentrations if the clinical Cmax of the agent was known.\nCompounds. The drugs and investigational agents: inavolisib (NSC800729), alpelisib (NSC765974), duvelisib (NSC772469), copanlisib (NSC816437), ipatasertib (NSC767898), afuresertib (NSC778305), talazoparib (NSC767125), sapanisertib (NSC764658), selumetinib (NSC741078), tovorafenib (DAY101, NSC766906), vemurafenib (NSC761431), ravoxertinib (NSC781343), sotorasib (NSC818433), MRTX1133 (NSC 836407), abemaciclib (NSC 768073), palbociclib (NSC758247), venetoclax (NSC 766270), SY5609 (NSC837396), enzalutamide (NSC755605), and darolutamide (NSC825331), were obtained from the National Cancer Institute (NCI) Developmental Therapeutics Program Chemical Repository. The FDA-approved anticancer drug set is available from the NCI Developmental Therapeutics Program. […] The stock solutions were prepared in dimethyl sulfoxide (DMSO, Sigma-Aldrich, St. Louis, MO, cat. D2650) at 800-fold the tested concentration and stored at -70 degrees C prior to their use. All drugs and investigational agents were tested over a range starting from a high concentration at or near the clinical Cmax and decreasing in half-log increments. If the clinical Cmax for an agent had not been determined, the highest concentration tested was 10 microM.\nCell Culture. All cells were maintained in an incubator at 37 degrees C and 5% CO2 with 95% humidity. The PDC lines were cultured according to standard operating procedures established by the NCI PDMR (https://pdmr.cancer.gov/sops/default.htm). All PDCs were thawed and cultured in Matrigel-coated flasks prepared with a working solution of 1X Ham's F-12 nutrient mix, without supplementation (Invitrogen, Waltham, MA, cat. 11765054), 100 U/mL penicillin-streptomycin (Invitrogen, cat. 15140122), and 2.5% Matrigel (Corning Inc., Corning, NY, cat. 354248) for the first three passages. The 354836-022-R-J1-PDC, 475296-252-R-J1-PDC, and 997726-040-R-J2-PDC lines were cultured in 6A media, which includes advanced DMEM/F-12 (Thermo Fisher Scientific, cat. 12634028), 10 mM HEPES (Thermo Fisher Scientific, cat. 15630080), 1X GlutaMAX supplement (Thermo Fisher Scientific, cat. 35050061), 0.1 mg/mL primocin (InvivoGen, San Diego, CA, cat. ant-pm-2), 10% defined fetal bovine serum, heat inactivated (HyClone Laboratories Inc., Logan, UT, cat. SH30070.03HI), 50% L-WRN conditioned media (ATCC, cat. CRL-3276), 1.25 mM N-Acetyl-L-cysteine (Sigma-Aldrich, cat. A9165), 10 mM nicotinamide (Sigma-Aldrich, cat. N0636), 1X B-27 supplement (Thermo Fisher Scientific, cat. 17504044), 1X N-2 supplement (Thermo Fisher Scientific, cat. 17502048), and 10 microM Y-27632 dihydrochloride (Tocris Bioscience, Bristol, United Kingdom, cat. 1254). The 624824-186-R-J2-PDC line was cultured in 6C/Colon 1B media, which includes all 6A media components plus 50 ng/mL human EGF recombinant protein (Thermo Fisher Scientific, cat. PHG0311). […]"}
{"smiles": "Cn1cnc2c(F)c(Nc3ccc(Br)cc3Cl)c(C(=O)NOCCO)cc21", "note": "+ CC(Nc1ncnc2nc[nH]c12)c1cc2cccc(Cl)c2c(=O)n1-c1ccccc1", "values": [{"measurement": "IC50", "setting": "second compound 0.0316 µM", "result": 2020, "unit": "nM"}, {"measurement": "IC50", "setting": "second compound 0.1 µM", "result": 1540, "unit": "nM"}, {"measurement": "IC50", "setting": "second compound 0.316 µM", "result": 1680, "unit": "nM"}, {"measurement": "IC50", "setting": "second compound 1 µM", "result": 1280, "unit": "nM"}, {"measurement": "IC50", "setting": "second compound 3.16 µM", "result": 688, "unit": "nM"}, {"measurement": "IC50", "setting": "second compound 10 µM", "result": 297, "unit": "nM"}, {"measurement": "viability, T/C", "setting": "second compound 0.0316 µM, first compound 0.00949 µM", "result": 102, "unit": "%"}, {"measurement": "viability, T/C", "setting": "second compound 0.0316 µM, first compound 0.03 µM", "result": 87.3, "unit": "%"}, {"measurement": "viability, T/C", "setting": "second compound 0.0316 µM, first compound 0.0949 µM", "result": 103, "unit": "%"}, {"measurement": "viability, T/C", "setting": "second compound 0.0316 µM, first compound 0.3 µM", "result": 74.2, "unit": "%"}, {"measurement": "viability, T/C", "setting": "second compound 0.0316 µM, first compound 0.949 µM", "result": 66.8, "unit": "%"}, {"measurement": "viability, T/C", "setting": "second compound 0.0316 µM, first compound 3 µM", "result": 42.2, "unit": "%"}, {"measurement": "viability, T/C", "setting": "second compound 0.1 µM, first compound 0.00949 µM", "result": 96.5, "unit": "%"}, {"measurement": "viability, T/C", "setting": "second compound 0.1 µM, first compound 0.03 µM", "result": 84.3, "unit": "%"}, {"measurement": "viability, T/C", "setting": "second compound 0.1 µM, first compound 0.0949 µM", "result": 101, "unit": "%"}, {"measurement": "viability, T/C", "setting": "second compound 0.1 µM, first compound 0.3 µM", "result": 80.8, "unit": "%"}, {"measurement": "viability, T/C", "setting": "second compound 0.1 µM, first compound 0.949 µM", "result": 59.8, "unit": "%"}, {"measurement": "viability, T/C", "setting": "second compound 0.1 µM, first compound 3 µM", "result": 37.6, "unit": "%"}, {"measurement": "viability, T/C", "setting": "second compound 0.316 µM, first compound 0.00949 µM", "result": 95.8, "unit": "%"}, {"measurement": "viability, T/C", "setting": "second compound 0.316 µM, first compound 0.03 µM", "result": 98.6, "unit": "%"}, {"measurement": "viability, T/C", "setting": "second compound 0.316 µM, first compound 0.0949 µM", "result": 81.3, "unit": "%"}, {"measurement": "viability, T/C", "setting": "second compound 0.316 µM, first compound 0.3 µM", "result": 86.1, "unit": "%"}, {"measurement": "viability, T/C", "setting": "second compound 0.316 µM, first compound 0.949 µM", "result": 59.2, "unit": "%"}, {"measurement": "viability, T/C", "setting": "second compound 0.316 µM, first compound 3 µM", "result": 38.6, "unit": "%"}, {"measurement": "viability, T/C", "setting": "second compound 1 µM, first compound 0.00949 µM", "result": 97.4, "unit": "%"}, {"measurement": "viability, T/C", "setting": "second compound 1 µM, first compound 0.03 µM", "result": 106, "unit": "%"}, {"measurement": "viability, T/C", "setting": "second compound 1 µM, first compound 0.0949 µM", "result": 87.7, "unit": "%"}, {"measurement": "viability, T/C", "setting": "second compound 1 µM, first compound 0.3 µM", "result": 80.3, "unit": "%"}, {"measurement": "viability, T/C", "setting": "second compound 1 µM, first compound 0.949 µM", "result": 56.4, "unit": "%"}, {"measurement": "viability, T/C", "setting": "second compound 1 µM, first compound 3 µM", "result": 31.5, "unit": "%"}, {"measurement": "viability, T/C", "setting": "second compound 3.16 µM, first compound 0.00949 µM", "result": 91, "unit": "%"}, {"measurement": "viability, T/C", "setting": "second compound 3.16 µM, first compound 0.03 µM", "result": 91.3, "unit": "%"}, {"measurement": "viability, T/C", "setting": "second compound 3.16 µM, first compound 0.0949 µM", "result": 80.7, "unit": "%"}, {"measurement": "viability, T/C", "setting": "second compound 3.16 µM, first compound 0.3 µM", "result": 67.2, "unit": "%"}, {"measurement": "viability, T/C", "setting": "second compound 3.16 µM, first compound 0.949 µM", "result": 43.2, "unit": "%"}, {"measurement": "viability, T/C", "setting": "second compound 3.16 µM, first compound 3 µM", "result": 27.4, "unit": "%"}, {"measurement": "viability, T/C", "setting": "second compound 10 µM, first compound 0.00949 µM", "result": 101, "unit": "%"}, {"measurement": "viability, T/C", "setting": "second compound 10 µM, first compound 0.03 µM", "result": 80.6, "unit": "%"}, {"measurement": "viability, T/C", "setting": "second compound 10 µM, first compound 0.0949 µM", "result": 74.3, "unit": "%"}, {"measurement": "viability, T/C", "setting": "second compound 10 µM, first compound 0.3 µM", "result": 47.4, "unit": "%"}, {"measurement": "viability, T/C", "setting": "second compound 10 µM, first compound 0.949 µM", "result": 31.7, "unit": "%"}, {"measurement": "viability, T/C", "setting": "second compound 10 µM, first compound 3 µM", "result": 18.1, "unit": "%"}]}
